Measurements from patent US20260317304A1, “TEAD INHIBITORS AND METHODS OF USE” (Sporos BioDiscovery, Inc., priority 2022, published 2026).

Experiments:
[1] = system: NCI-H226 lung tumor model; experiment: Mouse xenograft NCI-H226 tumors; format: in vivo, NOD SCID mice
Text: This study evaluated the in vivo anti-tumor efficacy of test compounds in NOD SCID mice for treatment of NCI-H226 lung tumor model.
• Species: Mus Musculus • Strain: NOD SCID • Age: 6-8 weeks • Sex: female • Body weight: 18-22 g • Number of animals inoculated with tumor: 69 mice • Number of animals enrolled in the treatment: 40 mice • Number of unenrolled animals: 29 mice • Animal supplier: Beijing Vital River Biotechnology Experimental Animal Co. Ltd Certification number: 20221110Abzz0619000681
The NCI-H226 tumor cells were maintained in vitro in RPMI 1640 medium supplemented with 10% Fetal bovine serum and 1% Antibiotic-Antimycotic at 37° C. in an atmosphere of 5% CO2 in air. The tumor cells were routinely subcultured twice weekly by trypsin-EDTA. The cells growing in an exponential growth phase were harvested and counted for tumor inoculation.
Each mouse was inoculated subcutaneously at the right flank with NCI-H226 tumor cells (10×10^6+50% matrigel/0.2 mL) for tumor development. Animals were marked with earrings with unique 6 significant figure number for identification. The treatments were started when the average tumor volume reached an average size of 154 mm^3.
The major endpoint was to determine if the tumor growth could be delayed or mice could be cured. Tumor volume was measured twice a week in two dimensions using a caliper, and the volume was expressed in mm^3 using the formula: V=0.5 a×b^2 where a and b are the long and short diameters of the tumor, respectively. The tumor size was then used for calculations of T/C value. The TGI value (in percent) or the T/C value (in percent) is an indication of antitumor effectiveness; T and C are the mean tumor volumes or tumor weights of the treated and control groups, respectively, on a given day.
TGI was calculated for each group using the formula: TGI (%)=[1−(Ti−T0)/(Vi−V0)]×100; Ti is the average tumor volume of a treatment group on a given day, T0 is the average tumor volume of the treatment group on the day of treatment start, Vi is the average tumor volume of the vehicle control group on the same day with T1, and V0 is the average tumor volume of the vehicle group on the day of treatment start.
Relative T/C (%)=TRTV/CRTV×100 (RTV (%)=Vt/V0×100, Vt is the average tumor volume on a given day, V0 is the average tumor volume on the first day of treatment. TRTV is the RTV of a treatment group, and the CRTV is the RTV of the vehicle control group.)
Tumor weight was measured at the study termination. The Tweight/Cweight value (in percent) was calculated according to the formula: Tweight/Cweight (%)=TWtreatment/TWvehicle×100, where T and C are the mean tumor weights of the treatment and control groups respectively
Summary statistics, including mean and the standard error of the mean (SEM), were provided for the tumor volume of each group at each time point.
Statistical analysis of difference in tumor volume among the groups was conducted on the data obtained at the end of the study.
One-tailed T test was performed to compare tumor volumes between two groups. All data were analyzed using GraphPad Prism 6.0. p<0.05 is considered to be statistically significant.
The antitumor effectiveness of the study was analyzed on PG-D28 when vehicle group reached 472 mm^3.

TEAD isoforms 1-4 = experiment: TEAD thermal shift assay (TSA), outcome in words; format: binding, human
Text: Thermal shift assay (TSA) is a biophysical method to evaluate stability of proteins with change in temperature. The assay measures thermal denaturation temperature in varying conditions such as different drug concentration. For this example, fluorogenic dye was used that bind to unfolded proteins. SYPRO Orange binds non-specifically to hydrophobic surfaces, and water strongly quenches its fluorescence. When the protein unfolds, the exposed hydrophobic surfaces bind the dye, resulting in an increase in fluorescence by excluding water. Detergent micelles also bind the dye and increase background noise dramatically. Binding of small molecules to proteins leads to a stabilization against to thermal denaturation with the degree of thermal stabilization proportional to the strength of binding.
The study described in this example investigated the change in melting temperature (ΔTm) of TEAD isoforms 1-4 when treated with TEAD inhibitors.
Tris-HCL was dissolved in 5 mL of Cell culture grade water and allowed to dissolve completely. The pH was adjusted to 8 using NaOH. Additional assay buffer components were added in the order listed above. The buffer was mixed slowly.
Assay buffer was prepared according to the procedures outlined above and dispensed into test wells. Spyro orange was added to a concentration of 5× in the assay buffer, followed by test compound stock solution which was added to a concentration of 10 μM or 30 μM in the assay buffer.
The melt cycle was performed in Bio-RAD PCR instrument from 20-95° C. with ramp rate of 1° C./min.

Which results are given for Cn1cnc(-c2cc([C@@]3(C)CCNC3=O)ccc2Nc2ccc(C(F)(F)F)cc2)c1 (single isomer, unassigned) [Compound 5, 3-methyl-3-(3-(1-methyl-1H-imidazol-4-yl)-4-((4-(trifluoromethyl)phenyl)amino)phenyl)pyrrolidin-2-one]?
Tumor size (mean ± SEM) ([1]; day 0, 5 mg/kg, PO BID): 154 ± 13 mm^3; Tumor size (mean ± SEM) ([1]; day 0, 15 mg/kg, PO BID): 154 ± 15 mm^3; Tumor size (mean ± SEM) ([1]; day 0, 15 mg/kg, PO QD): 154 ± 15 mm^3; Tumor size (mean ± SEM) ([1]; day 4, 5 mg/kg, PO BID): 140 ± 10 mm^3; Tumor size (mean ± SEM) ([1]; day 4, 15 mg/kg, PO BID): 127 ± 14 mm^3; Tumor size (mean ± SEM) ([1]; day 4, 15 mg/kg, PO QD): 153 ± 11 mm^3; Tumor size (mean ± SEM) ([1]; day 7, 5 mg/kg, PO BID): 129 ± 5 mm^3; Tumor size (mean ± SEM) ([1]; day 7, 15 mg/kg, PO BID): 115 ± 12 mm^3; Tumor size (mean ± SEM) ([1]; day 7, 15 mg/kg, PO QD): 149 ± 11 mm^3; Tumor size (mean ± SEM) ([1]; day 10, 5 mg/kg, PO BID): 124 ± 6 mm^3; Tumor size (mean ± SEM) ([1]; day 10, 15 mg/kg, PO BID): 110 ± 10 mm^3; Tumor size (mean ± SEM) ([1]; day 10, 15 mg/kg, PO QD): 148 ± 12 mm^3; Tumor size (mean ± SEM) ([1]; day 13, 5 mg/kg, PO BID): 82 ± 8 mm^3; Tumor size (mean ± SEM) ([1]; day 13, 15 mg/kg, PO BID): 84 ± 8 mm^3; Tumor size (mean ± SEM) ([1]; day 13, 15 mg/kg, PO QD): 116 ± 26 mm^3; Tumor size (mean ± SEM) ([1]; day 17, 5 mg/kg, PO BID): 77 ± 7 mm^3; Tumor size (mean ± SEM) ([1]; day 17, 15 mg/kg, PO BID): 62 ± 6 mm^3; Tumor size (mean ± SEM) ([1]; day 17, 15 mg/kg, PO QD): 94 ± 15 mm^3; Tumor size (mean ± SEM) ([1]; day 20, 5 mg/kg, PO BID): 73 ± 6 mm^3; Tumor size (mean ± SEM) ([1]; day 20, 15 mg/kg, PO BID): 63 ± 7 mm^3; Tumor size (mean ± SEM) ([1]; day 20, 15 mg/kg, PO QD): 95 ± 16 mm^3; Tumor size (mean ± SEM) ([1]; day 24, 5 mg/kg, PO BID): 55 ± 4 mm^3; Tumor size (mean ± SEM) ([1]; day 24, 15 mg/kg, PO BID): 49 ± 4 mm^3; Tumor size (mean ± SEM) ([1]; day 24, 15 mg/kg, PO QD): 85 ± 8 mm^3; T/C ([1]; day 28, 5 mg/kg, PO BID): 11.2%; TGI ([1]; day 28, 5 mg/kg, PO BID): 131.3%; Tumor size (mean ± SEM) ([1]; day 28, 5 mg/kg, PO BID): 53 ± 5 mm^3; Tumor Volume (mean ± SEM) ([1]; day 28, 5 mg/kg, PO BID (Table 20)): 53 ± 5 mm^3; T/C ([1]; day 28, 15 mg/kg, PO BID): 9.0%; TGI ([1]; day 28, 15 mg/kg, PO BID): 134.2%; Tumor size (mean ± SEM) ([1]; day 28, 15 mg/kg, PO BID): 43 ± 6 mm^3; Tumor Volume (mean ± SEM) ([1]; day 28, 15 mg/kg, PO BID (Table 20)): 43 ± 6 mm^3; T/C ([1]; day 28, 15 mg/kg, PO QD): 17.0%; TGI ([1]; day 28, 15 mg/kg, PO QD): 122.3%; Tumor size (mean ± SEM) ([1]; day 28, 15 mg/kg, PO QD): 82 ± 12 mm^3; Tumor Volume (mean ± SEM) ([1]; day 28, 15 mg/kg, PO QD (Table 20)): 82 ± 12 mm^3; thermal shift / TEAD binding (in words) (TEAD isoforms 1-4): strong TEAD1 and TEAD4 binding
